Reference: the NIST ThermoML archive (doi:10.1016/j.jct.2018.02.022)

Assay: xn = mol fraction of the nth substance listed
Conditions: 92.3 kPa, Liquid; for viscosity: Concentric cylinders viscometry; for speed of sound: Frequency=3 MHz, Single path-length method; for mass density: Vibrating tube method

OCCOCCO [diethylene glycol] + O
Conditions	mass density, 293.15 K [kg/m3]	mass density, 298.15 K [kg/m3]	speed of sound, 293.15 K [m/s]	speed of sound, 298.15 K [m/s]	viscosity, 293.15 K [mPa·s]	viscosity, 298.15 K [mPa·s]
x1 = 0.0097	1006.17	1004.88	1511.2	1523	–	–
x1 = 0.0201	1013.77	1012.33	1539.6	1549.1	–	–
x1 = 0.0297	1020.4	1018.8	1563.6	1571.1	–	–
x1 = 0.0397	1026.98	1025.23	1586.2	1591.7	–	–
x1 = 0.049	1032.59	1030.67	–	–	2.119	1.717
x1 = 0.0502	1033.24	1031.33	1607.7	1611.3	–	–
x1 = 0.0591	1038.24	1036.19	1624	1626.1	–	–
x1 = 0.0703	1044.16	1041.95	1642.5	1643	–	–
x1 = 0.0796	1048.67	1046.34	1655.5	1654.7	–	–
x1 = 0.0897	1053.15	1050.7	1667.9	1665.9	–	–
x1 = 0.0992	1057.14	1054.62	–	–	3.602	2.877
x1 = 0.1004	1057.71	1055.14	1679.7	1676.5	–	–
x1 = 0.149	1074.04	1071.09	–	–	5.458	4.314
x1 = 0.1507	1074.47	1071.48	1713	1705.9	–	–
x1 = 0.1996	1085.68	1082.45	1723.9	1714.7	–	–
x1 = 0.1998	1085.89	1082.66	–	–	7.66	6.022
x1 = 0.2467	1093.59	1090.21	1723	1712.6	–	–
x1 = 0.249	1093.81	1090.4	–	–	10.04	7.847
x1 = 0.2943	1098.86	1095.38	1716.6	1705.5	–	–
x1 = 0.2987	1099.44	1095.93	–	–	12.55	9.772
x1 = 0.3501	1103.6	1100.05	–	–	15.18	11.79
x1 = 0.3511	1103.73	1100.19	1705.1	1693.5	–	–
x1 = 0.3995	1106.65	1103.05	1694	1682.2	–	–
x1 = 0.4007	1106.63	1103.05	–	–	17.72	13.74
x1 = 0.4504	1108.9	1105.32	–	–	20.13	15.59
x1 = 0.4527	1109.08	1105.5	1681.7	1669.8	–	–
x1 = 0.4973	1110.6	1107.02	–	–	22.3	17.24
x1 = 0.5008	1110.76	1107.17	1670.7	1658.7	–	–
x1 = 0.5449	1111.95	1108.36	1661.5	1649.4	–	–
x1 = 0.553	1112.18	1108.61	–	–	24.68	19.07
x1 = 0.5834	1112.81	1109.23	1653.4	1641.4	–	–
x1 = 0.5938	1113.09	1109.52	–	–	26.23	20.23
x1 = 0.6482	1113.95	1110.37	1640.7	1628.7	–	–
x1 = 0.6514	1114.07	1110.49	–	–	28.3	21.86
x1 = 0.6864	1114.52	1110.94	–	–	29.45	22.7
x1 = 0.6982	1114.6	1111.02	1632.2	1620.2	–	–
x1 = 0.7444	1115.11	1111.54	1624.4	1612.5	–	–
x1 = 0.7556	1115.19	1111.61	–	–	31.37	24.17
x1 = 0.7962	1115.57	1112.01	1616.7	1604.8	–	–
x1 = 0.7999	1115.52	1111.95	–	–	32.41	24.94
x1 = 0.8401	1115.89	1112.33	1610.4	1598.5	–	–
x1 = 0.8525	1115.89	1112.33	–	–	33.47	25.8
x1 = 0.8947	1116.23	1112.67	1603.3	1591.5	–	–
x1 = 0.9002	1116.23	1112.68	–	–	34.4	26.49
x1 = 0.9092	1116.32	1112.76	1601.5	1589.6	–	–
x1 = 0.919	1116.37	1112.81	1600.2	1588.4	–	–
x1 = 0.9303	1116.39	1112.85	1599.1	1587.2	–	–
x1 = 0.9393	1116.4	1112.85	1598	1586.2	–	–
x1 = 0.9473	1116.5	1112.94	1597.2	1585.3	–	–
x1 = 0.9554	1116.57	1113.02	–	–	35.26	27.15
x1 = 0.9566	1116.55	1112.99	1596	1584.1	–	–
x1 = 0.9694	1116.6	1113.04	1594.6	1582.7	–	–
x1 = 0.9801	1116.65	1113.09	1593.4	1581.5	–	–
x1 = 0.9915	1116.69	1113.13	1592.1	1580.3	–	–
x1 = 1	1116.73	1113.17	1591	1579.1	35.89	27.67
